Data set [1] can be described thus: in vitro. The conditions noted are these: rat, liver microsomes. On the technique in general: Microsomes from liver hold many membrane-bound enzymes, among them those of drug oxidation.
A short description of data set [2]: in vitro. The conditions noted are these: rat, plasma.
Data set [3] is described as follows: in vivo. The conditions noted are these: Sprague-Dawley, rat, iv, 1 mg/kg.
Data set [4] can be described thus: in vivo. The conditions noted are these: CD1, mouse, brain, ip, 5 mg/kg.
Data set [5] in a line: in vivo. The settings on record: Sprague-Dawley, rat, po, 3 mg/kg.
The nature of data set [6]: in vivo. The conditions noted are these: CD1, mouse, brain/plasma, ip, 5 mg/kg.
The nature of data set [7]: in vivo. The conditions noted are these: Sprague-Dawley, rat, iv, 1 mg/kg. The source holds these as a separate data set.
The nature of data set [8]: in vivo. The settings on record: Sprague-Dawley, rat, plasma, po, 3 mg/kg.
Data set [9] in a line: in vivo. The settings on record: Sprague-Dawley, rat.
For data set [10], the species on record is Rattus norvegicus. The conditions noted are these: in vivo, po, 3 mg/kg.
For data set [11], the species on record is Rattus norvegicus. The conditions noted are these: in vivo, po, 3 mg/kg. This is another data set of the same source.

What is called half-life is the time needed for the level to fall by half in the phase considered. Lower therefore signals rapid decline. One may read the share remaining as what is left of the initial amount, in per cent. In the case of `COc1ccccc1N1CCN(C(=O)c2cc(-c3ccc(Cl)cc3Cl)n[nH]2)CC1`, the half-life in data set [1] was 45 min. In data set [2], the fraction remaining at 1 h worked out at 5%.
Taken in the same sequence, the figures for `COc1ccccc1N1CCN(C(=O)c2cc(-c3ccc(Cl)cc3)n[nH]2)[C@@H](C)C1` were 2 min and 100%.
As a reminder, the Vd is a proportionality between amount in the body and measured concentration, not a real space. A high value points to extensive tissue distribution. For orientation: bioavailability means dose-corrected exposure relative to a reference, in per cent. The low end stands for poor availability, the high end for good availability. The Kp is the ratio of the level in a tissue or fluid to that in plasma or blood. The clearance is a measure of how efficiently the substance is removed, as volume per time. Lower therefore signals inefficient removal. In general, AUC refers to the area under the concentration-time curve, a measure of exposure. The low end stands for low exposure, the high end for high exposure. `CC[C@H](NC(=O)c1c(O)c(-c2ccccc2)nc2ccccc12)c1ccccc1` [TALNETANT]: the Vd in data set [3] was found to be 1.4 L/kg. For the same compound, the half-life in data set [1] is 60 min; in data set [9], 450 min. For the same compound, in [4], the concentration at 10 min came to 340 ng/g. The compound further gave a bioavailability in data set [5] of 53%. The compound also came in with an amount remaining at 1 h in data set [2] of 100%. The Kp at 10 min in [6] was determined as 0.07. In addition, in data set [7], the clearance was 1.9 mL/min/kg. The compound also showed an area under the curve (AUC) in data set [8] of 15600 ng·h/mL.
Take `CC(=O)N(C)C1(c2ccccc2)CCN(CCC[C@]2(c3ccc(Cl)c(Cl)c3)CCCN(C(=O)c3ccccc3)C2)CC1` [OSANETANT]: in data set [3], the volume of distribution (Vd) amounted to 8.7 L/kg. Also, the values for the half-life in data set [1] and in data set [9] were 23 min and 110 min, respectively. The compound further yielded a concentration at 10 min in [4] of 30 ng/g. The same compound yielded a bioavailability in data set [5] of 17%. In [6], this compound displayed a concentration ratio (Kp) at 10 min of 0.03. Also, the clearance in data set [7] was determined as 57 mL/min/kg. The area under the curve (AUC) in data set [8] is 114 ng·h/mL.
`COc1ccccc1N1CCN(C(=O)c2cc(-c3ccc(Cl)cc3)n(C)n2)CC1`: the Vd in [3] amounted to 3.3 L/kg. Besides, the half-life came to 40 min in data set [1] and 310 min in data set [9]. The concentration at 10 min in data set [4] turned out to be 1700 ng/g. In addition, the F in data set [10] turned out to be 53%. In data set [2], this compound returned an amount remaining at 1 h of 100%. In data set [11], this compound showed an AUC of 90501 ng·min/mL. The same compound gave a concentration ratio (Kp) at 10 min in [6] of 0.64.

The values above are taken from ChEMBL document CHEMBL1759909, “Discovery of 3-aryl-5-acylpiperazinyl-pyrazoles as antagonists to the NK3 receptor” (Bioorg Med Chem Lett, 2011).
